Laboratory results reported in ChEMBL document CHEMBL1158212, “Squamotacin: an annonaceous acetogenin with cytotoxic selectivity for the human prostate tumor cell line (PC-3)” (J Nat Prod, 1996).
Values after ≈ are worked out from the molar mass of the structure shown.

Key:
HT-29 = assay: Cytotoxicity against human HT29 cells; type: functional; conditions: read-out: ED50 (the source's name)
A498 = assay: Cytotoxicity against human A498 cells; type: functional; conditions: for EC50: Homo sapiens, A498, read-out: ED50 (the source's name)
MCF7 = assay: Cytotoxicity against human MCF7 cells; type: functional; conditions: read-out: ED50 (the source's name)
A549 = assay: Cytotoxicity against human A549 cells; type: functional; conditions: for EC50: Homo sapiens, A549, read-out: ED50 (the source's name)
[1] = Cytotoxicity against human PC3 cells; type: cell-based, PC-3; conditions: read-out: ED50 (the source's name)
[2] = (§1) Toxicity in Artemia salina; type: organism-based; conditions: in vivo
MIA PaCa-2 = assay: Cytotoxicity against human MIAPaCa2 cells; type: functional; conditions: for EC50: Homo sapiens, MIA PaCa-2, read-out: ED50 (the source's name)
Artemia salina = assay: as §1; type: organism-based; conditions: in vivo

Row | SMILES | EC50 (HT-29) [ng/mL] | ED50 (A498) [×10⁻⁵ ug/ml] | EC50 (MCF7) [µg/mL] | ED50 (A549) [×10⁻⁶ ug/ml] | CC50 [1] [ng/mL] | LC50 [2] [ng/mL] | EC50 (A498) [µg/mL] | EC50 (MIA PaCa-2) [ng/mL] | EC50 (A549) [µg/mL] | LC50 (Artemia salina) [×10⁻² ug/ml] | ED50 (MIA PaCa-2) [×10⁻⁴ ug/ml]
1 | CCCCCCCCCC[C@@H](O)[C@@H]1CC[C@@H]([C@@H]2CC[C@@H]([C@H](O)CCCCCCCCCC(O)CC3=CC(C)OC3=O)O2)O1 (stereo not given in full) [BULLATACIN] | > 1000 | 4.85 | 0.696 (≈ 1140 nM) | 2.44 | – | – | – | – | – | – | –
2 | CCCCCCCCCC[C@H](O)[C@H]1CC[C@H]([C@H]2CC[C@H]([C@H](O)CCCCCCCCCC[C@@H](O)CC3=C[C@H](C)OC3=O)O2)O1 [BULLATACIN] | – | – | – | – | 1e-06 (≈ 1.61e-06 nM) | 1.59 (≈ 2.55 nM) | – | – | – | – | –
3 | COc1cccc2c1C(=O)c1c(O)c3c(c(O)c1C2=O)C[C@@](O)(C(=O)CO)C[C@@H]3O[C@H]1C[C@H](N)[C@H](O)[C@H](C)O1 [DOXORUBICIN] | 41.6 (≈ 76.5 nM) | – | 0.347 (≈ 638 nM) | – | 342 (≈ 629 nM) | 257 (≈ 473 nM) | 0.0249 (≈ 45.8 nM) | 3.17 (≈ 5.83 nM) | 0.0284 (≈ 52.3 nM) | – | –
4 | CCCCCCCCCC[C@H](O)[C@H]1CC[C@H]([C@H]2CC[C@H]([C@H](O)CCCCCCCC[C@@H](O)CC3=C[C@H](C)OC3=O)O2)O1 [MOLVIZARIN] | 7.32 (≈ 12.3 nM) | – | > 1 | – | – | – | 0.709 (≈ 1190 nM) | 7.66 (≈ 12.9 nM) | 0.063 (≈ 106 nM) | 5.26 | –
5 | CCCCCCCCCCCC[C@H](O)[C@H]1CC[C@H]([C@H]2CC[C@H]([C@H](O)CCCCCCCC[C@@H](O)CC3=C[C@H](C)OC3=O)O2)O1 [SQUAMOTACIN] | 1 (≈ 1.61 nM) | – | > 1 | – | – | 6.8 (≈ 10.9 nM) | > 1 | – | 0.0277 (≈ 44.5 nM) | – | 1.33
